One data set relates to Bovine Phosphodiesterase. The experiment in a line: Phosphodiesterase inhibiting activity (cAMP substrate, remaining cAMP measured by HPLC). The class given is biochemical. The note with it: for IC50: inhibition of phosphodiesterase, from Table 2 data, read-out: IC 50 values. The procedure:
Fifity g of the respiratory smooth muscle of a sacrificed cow was cut into pieces with scissors and a knife, then suspended in 2 mM EDTA-containing 20 mM Tris buffer (pH 7.4) of 5 times by volume the pieces, and homogenized with a polytron homogenizer to prepare a crude phosphodiesterase liquid. This was centrifuged at 10,000 x g for 20 minutes to collect the supernatant, which is a soluble, crude phosphodiesterase liquid. This was put into a Q-Sepharose fast-flow column (100 ml), washed with a buffer, and then eluted with sodium acetate having a gradient concentration of from 50 mM to 1 M. The phosphodiesterase-containing active fraction eluted with 0.7 M sodium acetate was collected.
To determine its phosphodiesterase activity, the enzyme was reacted with a substrate, 3',5'-cyclic adenosine monophosphate (cAMP, manufactured by Sigma Co. in US). After the reaction, the remaining cAMP was measured through high-performance liquid chromatography.
0.02 mg/ml of cAMP, 2.5 mM dithiothreitol, 6 mM magnesium chloride, 50 mM Tris buffer (pH 8.0), 1 µl of the phosphodiesterase liquid prepared above, and a varying amount of the compound of the invention were put into plastic tubes having a volume of 0.3 ml, to which was added water to have a final volume of 200 µl. The mixture was stirred, and incubated at 37°C for 60 minutes. 20 µl of an aqueous solution of 200 mM tetraethylenediamine was added to each tube to stop the reaction. 20 µl of the resulting reaction mixture was subjected to high-performance liquid chromatography (ODS column of 3.9 mm⌀ x 150 mm, manufactured by Waters Co. in US), through which the remaining cAMP was measured. From the data, obtained was the activity of the compound of the invention of inhibiting the enzyme phosphodiesterase, as in Table 2.

In the next data set the test system is guinea pig oxyphiles. Briefly: Inhibition of activation of oxyphiles (PAF-induced release of active oxygen, luminol chemiluminescence). The class given is cell-based, Hartley guinea pigs. The note with it: Cavia porcellus, 5 min; PAF stimulation, chemiluminescence for 5 minutes; read-out: IC50 (x 10^-6 M). The procedure: One mg of polymyxin B (manufactured by Sigma Co.) was intra-abdominally administered to Hartley guinea pigs (6-week age). The chemical was administered to the animals once a week, for 6 to 8 weeks. After the final administration of the chemical polymyxin B, 50 ml of PBS (phosphate-buffered saline) was injected into the abdomen of each guinea pig, and the abdominal cells were collected. These were centrifuged at 800 rpm for 5 minutes to collect the precipitate of abdominal infiltrated cells. The precipitated cells were suspended in 1 ml of 40 % Ficol solution (40 % Ficol (manufactured by Pharmacia Co.) in HBSS (Hanks' […] salt solution)), and stratified over a discontinuous density gradient of Ficol (40 to 90 %). This was centrifuged at 1500 rpm for 40 minutes to collect the oxyphile fraction. This operation generally produced oxyphiles having a purity of 99 % or higher. The cells were washed two times with an RPMI1640 medium (0.2 % BSA (bovine serum albumin), manufactured by Boehringer Mannheim Co.), then suspended to have a predetermined cell concentration, and used in the intended experiments. (B) Effect of Inactivating Oxyphiles (Effect of inhibiting the activity of guinea pig oxyphiles to release active oxygen):
2 µl of each chemical to be tested and 180 µl of the cell suspension were added to each well of a 96-well multiwell plate (white plate for chemiluminometry) which had been previously kept at 37°C, and kept therein at 37°C for 10 minutes. After thus kept, 20 µl of PAF (platelet activating factor) (x -10^-6 M) and 20 µl of a luminol solution were added thereto, and immediately the intensity of chemiluminescence of the system was measured, using […]. The data of chemiluminescence for 5 minutes were obtained, from which was calculated the 50 % inhibition concentration of the compound tested (IC50).

The nature of data set [1]: Solubility of the isolated substances in solvents. In kind it is physicochemical. The note with it: qualitative; for Solubility: various solvents. The procedure: These pure NA23063A, NA23063B1, NA23063B2, NA23063C and NA23063D were tested for their appearance, molecular weight, solubility, Rf value in silica gel thin-layer column chromatography, UV absorption spectrum, IR absorption spectrum, ^1H-NMR spectrum, and ^13C-NMR spectrum. The physicochemical properties of NA23063A, B1, B2, C and D thus obtained have been shown hereinabove.

The test system of a further data set is bronchial smooth muscle. The experiment in a line: Inhibition of contraction of bronchial smooth muscle (histamine-contracted tracheal strips in an organ bath). The arrangement: species or system Hartley guinea pigs. The note with it: 10 µg/ml; contraction with 10 µM histamine = 100 %, relaxation with papaverine = 0 %. The method, then: The tracheae were taken out of male Hartley guinea pigs having a body weight of from 400 to 500 g. These were cut off at the cartilage opposite to the smooth muscle, and sliced into small pieces having a width of 1 mm. Five of these pieces were bound with silk thread into one bundle, of which the both ends were ligated with machine cotton. This was then suspended in an organ bath with applying thereto a tension of 0.5 g. The temperature of the bath was 37°C, and the bath contained a nutrient liquid of Krebs-Hanseleit buffer (118 mM NaCl, 4.6 mM KCl, 1.1 mM MgSO4·7H2O, 1.8 mM CaCl2·2H2O, 24.9 mM NaHCO3, 1.0 mM KH2PO4·2H2O, 11.1 mM glucose). To the nutrient liquid, added was 5 µM indomethacin. The bath was well aerated with a mixed gas of 95 % O2 + 5 % CO2. The suspended tissue was incubated in the organ bath for about 2 hours for habituation in the external environment. Then, this was contracted with 10 µM histamine. After the contraction was stabilized, NA23063D was added to the bath to have a concentration of 0.1, 0.3, 1.0, 3.0, 10 and 30 µg/ml. The reaction in the bath comprising the varying amount of NA23063D was continued until the relaxation of the tissue became stabilized. When no relaxation was admitted in 10 minutes after the addition of the chemical, NA23063D, the concentration of the chemical was increased to the next stage. […]

In data set [2] the test system is respiratory tract resistance. The experiment in a line: Inhibition of immediate allergic respiratory stenosis in ovalbumin-sensitized asthmatic animal models. The note with it: intravenous administration of 30 mg/kg, rat models, relative to control maximum resistance after antigen. The class given is in vivo, Brown-Norway (BN) rats. The procedure: An antigen ovalbumin (OA) was administered to male Brown-Norway (BN) rats to prepare actively-sensitized animal models. To sensitize the animals, 1 ml of the antigen solution (100 mg/ml of Al(OH)3 and 1 mg/ml of OA in aqueous 0.9 % NaCl solution) was subcutaneously administered to the back of each rat. On the other hand, inactivated cells of Bordetella pertussis were suspended in an aqueous solution of 0.9 % NaCl to have a concentration of 1.0 x 10^10 cells/ml. 0.25 ml of the cell suspension was intra-abdominally administered to each rat along with the antigen sensitization. The administration was repeated three times in all, on the 1st, 7th and 14th days. […]
Those actively-sensitized BN rats were anesthetized with sodium pentobarbiturate (50 mg/kg, i.p.), into which was inserted a polyvinyl chloride tube cannula through the respiratory tract. Each rat was purged with air through the cannula, and the respiratory tract resistance was monitored. […] In addition, an additional cannula was inserted into the left common carotid artery of each rat, through which the blood pressure and the heart beat of the rat being tested were monitored. […] On the basis of the time (0, zero) at which the antigen was challenged, the variation (increase or decrease) in the respiratory tract resistance of each rat was recorded at regular intervals before and after the administration of the antigen. […]

Each structure is given as a SMILES string.

As for `O=c1c(-c2ccc(Oc3cc(-c4coc5cc(O)cc(O)c5c4=O)ccc3O)cc2)coc2cc(O)cc(O)c12` [NA23063A], the “Inhibiting Activity (%)” value in the data set with Bovine Phosphodiesterase (Concentration 0.78 µg/ml) worked out at 43.5%; with Bovine Phosphodiesterase (Concentration 1.56 µg/ml), 57.8%; with Bovine Phosphodiesterase (Concentration 3.13 µg/ml) it was 60.5%; in the data set on Bovine Phosphodiesterase (Concentration 6.25 µg/ml) it was 79.5%. Moreover, the IC50 on Bovine Phosphodiesterase amounted to 2100 nM; in the data set on guinea pig oxyphiles, 100 nM. In addition, in data set [1], the Solubility entry is “soluble in lower alcohols, acetone and ethyl acetate, but insoluble in hexane, petroleum ether and water”.

On to `O=c1c(-c2ccc(O)c(-c3cc(-c4coc5cc(O)cc(O)c5c4=O)ccc3O)c2)coc2cc(O)cc(O)c12` [NA23063C], for which the “Inhibiting Activity (%)” value in the data set on Bovine Phosphodiesterase (Concentration 0.39 µg/ml) is 26.4%; in the data set on Bovine Phosphodiesterase (Concentration 0.78 µg/ml), 57.7%; in the data set with Bovine Phosphodiesterase (Concentration 1.56 µg/ml), 66.5%; in the data set with Bovine Phosphodiesterase (Concentration 3.13 µg/ml), 77.6%; in the data set on Bovine Phosphodiesterase (Concentration 6.25 µg/ml), 83.8%. Also, the IC50 was determined as 1300 nM at Bovine Phosphodiesterase and 320 nM with guinea pig oxyphiles. Also, in data set [1], the Solubility result is “soluble in lower alcohols, acetone, ethyl acetate and dimethylsulfoxide, but insoluble in hexane, petroleum ether and water”.

`O=c1c(-c2ccc(O)c(-c3cc(-c4coc5cc(O)cc(O)c5c4=O)ccc3O)c2)coc2cc(O)ccc12` [NA23063D]: the “Inhibiting Activity (%)” value in the data set with Bovine Phosphodiesterase (Concentration 0.39 µg/ml) came to 18.9%; with Bovine Phosphodiesterase (Concentration 0.78 µg/ml), 30.7%; in the data set on Bovine Phosphodiesterase (Concentration 1.56 µg/ml), 34.6%; in the data set with Bovine Phosphodiesterase (Concentration 3.13 µg/ml), 44.8%; with Bovine Phosphodiesterase (Concentration 6.25 µg/ml) it was 61.0%. The IC50 on Bovine Phosphodiesterase came to 7900 nM; with guinea pig oxyphiles, 1100 nM. Besides, the “relaxation of the bronchial smooth muscle” value in the data set on bronchial smooth muscle amounted to 61%. In data set [2], the “% inhibition (decrease in the respiratory tract resistance)” value amounted to 54%. Further, in data set [1], the “Solubility in dimethylsulfoxide (DMSO)” value is listed as “soluble”. Moreover, the Solubility result in data set [1] is “soluble in lower alcohols, acetone, ethyl acetate and dimethylsulfoxide, but insoluble in hexane, petroleum ether and water”.

In the case of `O=c1c(-c2ccc(Oc3cc(-c4coc5cc(O)cc(O)c5c4=O)ccc3O)cc2)coc2cc(O)ccc12` [NA23063B1], the “Inhibiting Activity (%)” value in the data set with Bovine Phosphodiesterase (Concentration 0.39 µg/ml) is reported as 17.5%; in the data set with Bovine Phosphodiesterase (Concentration 0.78 µg/ml) it was 28.1%; in the data set on Bovine Phosphodiesterase (Concentration 1.56 µg/ml) it was 38.2%; in the data set on Bovine Phosphodiesterase (Concentration 3.13 µg/ml), 56.3%; with Bovine Phosphodiesterase (Concentration 6.25 µg/ml) it was 64.9%. At Bovine Phosphodiesterase, the IC50 stood at 4900 nM. Besides, the Solubility result in data set [1] is “soluble in lower alcohols, acetone, ethyl acetate and dimethylsulfoxide, but insoluble in hexane, petroleum ether and water”.

Take `O=c1c(-c2ccc(O)c(Oc3ccc(-c4coc5cc(O)cc(O)c5c4=O)cc3)c2)coc2cc(O)ccc12` [NA23063B2]: the “Inhibiting Activity (%)” value in the data set on Bovine Phosphodiesterase (Concentration 0.39 µg/ml) is reported as 17.5%; in the data set with Bovine Phosphodiesterase (Concentration 0.78 µg/ml), 28.1%; in the data set with Bovine Phosphodiesterase (Concentration 1.56 µg/ml), 38.2%; with Bovine Phosphodiesterase (Concentration 3.13 µg/ml) it was 56.3%; with Bovine Phosphodiesterase (Concentration 6.25 µg/ml) it was 64.9%. The IC50 on Bovine Phosphodiesterase is 4900 nM. Moreover, the Solubility entry in data set [1] was “soluble in lower alcohols, acetone, ethyl acetate and dimethylsulfoxide, but insoluble in hexane, petroleum ether and water”.

These data come from EP0829477A1, “NOVEL PHYSIOLOGICALLY ACTIVE NA23063 ANALOGUES, PROCESS FOR PRODUCING THE SAME AND USE OF THE SAME” (NIPPON KAYAKU KABUSHIKI KAISHA, priority 1995, dated 1996).
